Laboratory results taken from publication PMC5308906 (Angewandte Chemie (International ed. in English), 2016).
No end group written: not given here.

Key:
[1] = biological target: T1, εPKC (Homo sapiens, UniProt Q02156); test: In vitro binding assay of εPKC to the peptides; conditions: εPKC at ~75 μg/mL (~1 μM)
T1 sequence (Q02156 1-737): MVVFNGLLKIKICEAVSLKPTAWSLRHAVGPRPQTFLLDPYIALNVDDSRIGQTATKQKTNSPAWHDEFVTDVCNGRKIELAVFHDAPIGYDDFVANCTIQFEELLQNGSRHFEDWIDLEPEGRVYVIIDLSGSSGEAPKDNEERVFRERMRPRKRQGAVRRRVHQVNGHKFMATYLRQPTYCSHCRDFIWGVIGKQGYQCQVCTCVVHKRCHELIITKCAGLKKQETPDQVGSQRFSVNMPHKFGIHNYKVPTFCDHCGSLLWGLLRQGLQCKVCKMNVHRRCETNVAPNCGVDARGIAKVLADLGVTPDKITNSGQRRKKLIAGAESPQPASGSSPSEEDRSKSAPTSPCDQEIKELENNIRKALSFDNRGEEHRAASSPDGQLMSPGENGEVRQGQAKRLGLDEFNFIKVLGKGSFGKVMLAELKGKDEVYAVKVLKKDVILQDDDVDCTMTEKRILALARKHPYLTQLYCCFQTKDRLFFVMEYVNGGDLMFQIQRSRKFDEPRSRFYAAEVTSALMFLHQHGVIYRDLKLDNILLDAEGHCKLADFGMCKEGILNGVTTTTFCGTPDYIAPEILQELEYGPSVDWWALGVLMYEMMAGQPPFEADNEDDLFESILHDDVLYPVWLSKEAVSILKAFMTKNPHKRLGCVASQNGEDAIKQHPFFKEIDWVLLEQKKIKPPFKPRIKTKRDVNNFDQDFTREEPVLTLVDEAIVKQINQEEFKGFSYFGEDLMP

[2] = test system: H9c2 cells; assay type: cell-based; conditions: H9c2, ischemia and reoxygenation
[3] = test system: Rat hearts subjected to I/R; test: Langendorff ex vivo model of myocardial infarction; conditions: ψDrp1 alanine substitution study, n=4
[4] = test system: H9c2 cells; test: Mitochondrial ROS production; conditions: H9c2, ischemia and reoxygenation; peptide 2 μM
[5] = test system: phosphorylation of Drp1; test: Drp1 phosphorylation after cardiac I/R, ψDrp1 derivatives; conditions: hearts subjected to I/R
[6] = biological target: δPKC (Homo sapiens, UniProt Q05655); test: In vitro binding assay of δPKC to the peptides
Chain of δPKC (Q05655 whole entry): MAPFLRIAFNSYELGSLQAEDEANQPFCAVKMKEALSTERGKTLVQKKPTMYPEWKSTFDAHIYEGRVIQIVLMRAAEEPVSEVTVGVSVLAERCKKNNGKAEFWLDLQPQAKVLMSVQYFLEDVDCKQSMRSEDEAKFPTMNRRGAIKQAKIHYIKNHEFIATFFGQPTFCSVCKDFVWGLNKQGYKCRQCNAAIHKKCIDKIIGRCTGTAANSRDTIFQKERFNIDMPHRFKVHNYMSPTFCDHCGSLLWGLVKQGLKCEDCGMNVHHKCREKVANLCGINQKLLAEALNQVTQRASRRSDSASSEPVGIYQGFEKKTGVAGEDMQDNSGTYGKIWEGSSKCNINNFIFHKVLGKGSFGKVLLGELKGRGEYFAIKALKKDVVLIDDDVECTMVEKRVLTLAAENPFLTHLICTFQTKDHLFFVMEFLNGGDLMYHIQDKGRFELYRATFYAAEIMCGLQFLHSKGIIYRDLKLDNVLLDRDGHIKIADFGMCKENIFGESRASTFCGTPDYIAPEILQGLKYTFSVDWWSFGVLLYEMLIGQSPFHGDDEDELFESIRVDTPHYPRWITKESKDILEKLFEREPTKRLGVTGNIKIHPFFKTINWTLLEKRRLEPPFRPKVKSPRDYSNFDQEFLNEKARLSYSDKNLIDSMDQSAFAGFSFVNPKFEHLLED

Q: How did the “Binding to εPKC” value [1] turn out when “RAAEEP-NH2 (C-terminus assumed) [ψMARCKS-Cargo]” was run?
A: not to the another PKC isozyme, εPKC

Q: How did the “Effect on mitochondrial function and cell viability” value [2] turn out when “YGRKKRRQRRRGGYTDFDE-NH2 (C-terminus assumed) [ψDrp1]” was run?
A: rescued mitochondrial function and cell viability

Q: What about the “Protection from cardiac damage” value [3] of the same substance?
A: 75%

Q: What about the “Effect on excessive mitochondrial ROS production” value [4] of the same substance?
A: decreased excessive mitochondrial ROS production

Q: How did the “Protection from cardiac damage” value [3] turn out when YTAFDE-TAT [ψDrp1 Asp3 Ala] was run?
A: 65%

Q: What about the “Effect on Drp1 phosphorylation” value [5] of the same substance?
A: inhibited Drp1 phosphorylation

Q: With YTDFDE [ψDrp1-Cargo] as the substance, how does the Kd [6] read?
A: 1.4 ± 0.3 nM
